For six compounds, IC50 results are on record in BindingDB's records for patent US20240262835 (Antengene Discovery, 2024).

pIC50: −log10 of the molar value.

Sequence of Methylosome protein 50/Protein arginine N-methyltransferase 5 (O14744 whole entry): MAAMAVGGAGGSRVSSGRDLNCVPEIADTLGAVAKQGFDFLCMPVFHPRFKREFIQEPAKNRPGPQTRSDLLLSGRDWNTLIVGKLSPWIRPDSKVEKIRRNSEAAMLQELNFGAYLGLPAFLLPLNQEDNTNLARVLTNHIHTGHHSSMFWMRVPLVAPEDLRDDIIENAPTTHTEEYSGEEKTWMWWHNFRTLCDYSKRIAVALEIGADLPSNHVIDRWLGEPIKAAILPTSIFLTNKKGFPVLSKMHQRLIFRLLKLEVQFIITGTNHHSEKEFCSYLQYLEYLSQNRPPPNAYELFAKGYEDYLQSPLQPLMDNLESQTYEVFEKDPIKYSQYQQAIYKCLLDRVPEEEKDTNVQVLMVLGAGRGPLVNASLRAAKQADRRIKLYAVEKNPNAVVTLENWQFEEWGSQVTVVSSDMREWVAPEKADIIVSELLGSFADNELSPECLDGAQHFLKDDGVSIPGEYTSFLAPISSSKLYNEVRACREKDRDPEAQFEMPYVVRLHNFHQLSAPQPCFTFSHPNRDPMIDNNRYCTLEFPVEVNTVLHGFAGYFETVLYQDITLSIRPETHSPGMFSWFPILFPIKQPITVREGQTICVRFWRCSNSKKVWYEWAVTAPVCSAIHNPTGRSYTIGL
Sequence of Methylosome protein 50/Protein arginine N-methyltransferase 5 (Q9BQA1 whole entry, further chain): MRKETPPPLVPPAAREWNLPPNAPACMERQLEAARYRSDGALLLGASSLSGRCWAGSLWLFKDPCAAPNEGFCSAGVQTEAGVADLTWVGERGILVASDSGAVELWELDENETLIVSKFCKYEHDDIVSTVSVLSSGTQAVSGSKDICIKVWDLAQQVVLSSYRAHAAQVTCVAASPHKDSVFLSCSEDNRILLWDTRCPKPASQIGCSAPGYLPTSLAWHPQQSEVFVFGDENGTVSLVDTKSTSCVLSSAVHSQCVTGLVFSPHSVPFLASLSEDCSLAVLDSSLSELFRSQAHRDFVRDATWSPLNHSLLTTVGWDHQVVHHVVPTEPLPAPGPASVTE

This test concerns the target Methylosome protein 50/Protein arginine N-methyltransferase 5 (Homo sapiens, UniProt O14744). As to the kind of experiment: PRMT5/MEP50 HotSpot Methyltransferase Assay. As to the method: Table 2: The assay used recombinant full-length histone H2A as the substrate of PRMT5. Enzymatic transfer of the tritiated methyl group from S-adenosyl-L-[methyl-3H]methionine (3H-SAM) to the histone H2A protein generated a radiolabeled histone H2A by measuring in a scintillation counter to determine the activity of PRMT5 enzyme in the presence and absence of compound. The assay reactions were conducted in the presence of 100 nM MTA. Briefly, compounds were solubilized in 100% DMSO at the highest concentration of 10 mM. […] Control samples lacking compound, PRTM5/MEP50 complex or various reaction components also were prepared and processed in parallel with compound test samples. SAH was used as a positive control for assay validation. To measure PRMT5 inhibitory activity, 1 nM PRTM5/MEP50 complex was preincubated with test compound in assay buffer containing 5 μM full-length histone H2A for 15 minutes at room temperature. The enzymatic reaction was initiated by adding 1 μM 3H-SAM (final concentration) and the mixture was incubated at 30° C. for 1 hour. The reaction was stopped and transferred to filter paper for detection. The amount of tritiated H2A in each sample was determined using a scintillation counter.
As a reminder, the pIC50 is the IC50 on a negative log10 scale, so that one unit is a factor of ten. A lower pIC50 goes with a high IC50. Take `C[C@H](c1ncccn1)N(Cc1ccc(C(F)(F)F)cn1)C(=O)c1cc2c(cn1)nc(N)c1cncn12` [US20240262835, Compound 10]: the pIC50 was 6.42.

For the compound `C[C@H](c1ncccn1)N(Cc1ccc(C(F)(F)F)cn1)C(=O)c1cc2c(cc1F)nc(N)c1cncn12` [US20240262835, Compound 6], the pIC50 is 7.00.

Regarding `Cn1ncc(-c2ccc3c(c2)nc(N)c2cncn23)c1-c1c(F)cc2ccccc2c1C#N` [US20240262835, Compound 1], the pIC50 is 8.10.

On to `C[C@H](c1ncccn1)N(Cc1ccc(C(F)(F)F)cn1)C(=O)c1ccc2nc(N)c3cncn3c2c1` [US20240262835, Compound 3], for which the pIC50 was 7.19.

In the case of `C[C@H](c1ncccn1)N(Cc1ccc(C(F)(F)F)cn1)C(=O)c1ccc2nc(N)n3cncc3c2c1` [US20240262835, Compound 5], the pIC50 was 7.09. This pIC50 and that of the compound before are within 0.2 log units of each other.

Turning to `C[C@H]1CC[C@H](c2ccc3c(c2)CCC(=O)N3)N(C(=O)c2ccc3nc(N)c4cncn4c3c2)C1` [US20240262835, Compound 4], the pIC50 is 8.22. Compared with the last compound, the pIC50 is 1.13 log units higher.
